Structures can show the parent of a compound that is named as a salt.
Columns and labels:
BIDPI [1] = assay: Greenhouse test, post-emergence herbicidal action; type: in vivo, hairy beggarticks
Excerpt: (§1) For the post-emergence treatment, the test plants were first grown to a height of 3 to 20 cm, depending on the plant habit, and only then treated. Here, the herbicidal compositions were suspended or emulsified in water as distribution medium and sprayed using finely distributing nozzles.
(§2) The respective components A and B and/or C were formulated as 10% by weight strength emulsion concentrate and introduced to the spray liquor with the amount of solvent system used for applying the active compound. In the examples, the solvent used was water.
(§3) The test period extended over 21 days. During this time, the plants were tended, and their response to the treatments with active compound was evaluated.
(§4) The evaluation for the damage caused by the chemical compositions was carried out using a scale from 0 to 100%, compared to the untreated control plants. Here, 0 means no damage and 100 means complete destruction of the plants.
(§5) In the examples below, the value E which is to be expected if the activity of the individual active compounds is just additive was calculated using the method of S. R. Colby (1967) “Calculating synergistic and antagonistic responses of herbicide combinations”, Weeds 15, p. 22 ff. E=X+Y—(X·Y/100) where • X=effect in percent using active compound A at an application rate a; • Y=effect in percent using active compound B at an application rate b; • E=expected effect (in %) of A+B at application rates a+b.
(§6) The plants used in the greenhouse experiments were of the following species: […]

ECHCG = assay: Greenhouse test, post-emergence herbicidal action; type: in vivo, barnyardgrass
Excerpt: as §1, §2, §3, §4, §5, §6

GALAP = assay: Greenhouse test, post-emergence herbicidal action; type: in vivo, catchweed bedstraw
Excerpt: as §1, §2, §3, §4, §5, §6

POLPE = assay: Greenhouse test, post-emergence herbicidal action; type: in vivo, ladysthumb
Excerpt: as §1, §2, §3, §4, §5, §6

AVEFA = assay: Greenhouse test, post-emergence herbicidal action; type: in vivo, wild oat
Excerpt: as §1, §2, §3, §4, §5, §6

BRAPL = assay: Greenhouse test, post-emergence herbicidal action; type: in vivo, alexandergrass
Excerpt: as §1, §2, §3, §4, §5, §6

COMBE = assay: Greenhouse test, post-emergence herbicidal action; type: in vivo, tropical spiderwort; conditions: 21 days
Excerpt: as §1, §2, §3, §4, §5, §6

ABUTH [2] = assay: Greenhouse test, post-emergence herbicidal action; type: in vivo, velvet leaf; conditions: 21 days
Excerpt: as §1, §2, §3, §4, §5, §6

SETFA = assay: Greenhouse test, post-emergence herbicidal action; type: in vivo, giant foxtail; conditions: 21 days
Excerpt: as §1, §2, §3, §4, §5, §6

crop plants = assay: Safener action, pre-emergence, damage to crop plants; type: in vivo; conditions: 21 days, application rate 100 g/ha
Excerpt: (§7) For the pre-emergence treatment, the test plants were sown is pots 1-2 days later, i.e. prior to germination, the pots were sprayed with the finely distributed herbicidal compositions, which had been suspended in water.
as §2, §4
As in the example above, test plants were grown, treated with the mixture according to the invention by the Pre-emergence method and, after a test period of 21 days, evaluated using a scale from 0 to 100% damage. The test plants used were crop plants.
A safener action is present if the damage to the crop plant caused by using a mixture according to the invention which comprises a safener C) is less than the damage caused when active compound A or active compounds A and B are used without safener.

SETVI = assay: Greenhouse test, post-emergence herbicidal action; type: in vivo, green foxtail; conditions: application rate 15.63 g/ha
Excerpt: as §1, §2, §3, §4, §5, §6

ABUTH [3] = assay: Greenhouse test, pre-emergence herbicidal action; type: in vivo, velvet leaf
Excerpt: as §7, §2, §3, §4, §5, §6

BIDPI [4] = assay: Greenhouse test, pre-emergence herbicidal action; type: in vivo, hairy beggarticks
Excerpt: as §7, §2, §3, §4, §5, §6

[5] = application rate 3.91 g/ha (Example 26)
[6] = application rate 3.91 g/ha (Example 27)
[7] = application rate 125 g/ha (Example 32)
[8] = application rate 250 g/ha (Example 32)
[9] = application rate 0.49 g/ha (Example 32)
[10] = application rate 0.98 g/ha (Example 32)
[11] = application rate 15.63 g/ha, 21 days
[12] = application rate 31.25 g/ha, 21 days
[13] = application rate 62.5 g/ha, 21 days
[14] = application rate 7.81 g/ha, 21 days
[15] = application rate 125 g/ha, 21 days
[16] = application rate 62.5 g/ha (Example 24)
[17] = application rate 125 g/ha (Example 24)
[18] = application rate 125 g/ha (Example 28)
[19] = application rate 250 g/ha (Example 28)

## CC(C)c1nc2c(Cl)cc(Cl)c(-c3nn(C)c(OC(F)F)c3Cl)c2o1 [I.18]
BIDPI [1]; application rate 1.95 g/ha (Example 26)
  Herbicidal action against BIDPI, Found: 60%
BIDPI [1]; application rate 1.95 g/ha (Example 27)
  Herbicidal action against BIDPI, Found: 60%
BIDPI [1]; [5]
  Herbicidal action against BIDPI, Found: 60%
BIDPI [1]; [6]
  Herbicidal action against BIDPI, Found: 60%

## CCC(C)(CC)c1cc(NC(=O)c2c(OC)cccc2OC)on1 [isoxaben]
ECHCG; [7]
  Herbicidal action against ECHCG, Found: 0%
ECHCG; [8]
  Herbicidal action against ECHCG, Found: 0%
GALAP; [7]
  Herbicidal action against GALAP, Found: 0%
GALAP; [8]
  Herbicidal action against GALAP, Found: 0%

## CS(=O)(=O)c1ccc(C(=O)C2C(=O)CCCC2=O)c([N+](=O)[O-])c1 [mesotrione]
ECHCG; application rate 7.81 g/ha
  Herbicidal action against ECHCG, Found: 45%
ECHCG; application rate 15.63 g/ha
  Herbicidal action against ECHCG, Found: 70%

## CC1(C)CON(Cc2ccccc2Cl)C1=O [clomazone]
POLPE; application rate 125 g/ha
  Herbicidal action against POLPE, Found: 75%
POLPE; application rate 250 g/ha
  Herbicidal action against POLPE, Found: 75%

## C[n+]1ccc(-c2cc[n+](C)cc2)cc1 [paraquat]
AVEFA; application rate 62.5 g/ha
  Herbicidal action against AVEFA, Found: 70%
AVEFA; application rate 125 g/ha
  Herbicidal action against AVEFA, Found: 80%

## CCCc1nc2c(Cl)cc(F)c(-c3nn(C)c(OC(F)F)c3Br)c2o1 [I.15]
BIDPI [1]; application rate 0.49 g/ha
  Herbicidal action against BIDPI, Found: 30%
BIDPI [1]; application rate 0.98 g/ha
  Herbicidal action against BIDPI, Found: 40%
BRAPL; application rate 0.49 g/ha
  Herbicidal action against BRAPL, Found: 30%
BRAPL; application rate 0.98 g/ha
  Herbicidal action against BRAPL, Found: 75%
ECHCG; [9]
  Herbicidal action against ECHCG, Found: 30%
ECHCG; [10]
  Herbicidal action against ECHCG, Found: 40%
GALAP; application rate 0.49 g/ha (Example 29)
  Herbicidal action against GALAP, Found: 40%
GALAP; application rate 0.49 g/ha (Example 30)
  Herbicidal action against GALAP, Found: 40%
GALAP; [9]
  Herbicidal action against GALAP, Found: 40%
GALAP; application rate 0.98 g/ha (Example 29)
  Herbicidal action against GALAP, Found: 70%
GALAP; application rate 0.98 g/ha (Example 30)
  Herbicidal action against GALAP, Found: 70%
GALAP; [10]
  Herbicidal action against GALAP, Found: 70%

## CCOC(=O)c1cnn(C)c1S(=O)(=O)NC(=O)Nc1nc(OC)cc(OC)n1 [pyrazosulfuron-ethyl, reference compound]
AVEFA; [11]
  Herbicidal action against AVEFA, Found: 0%
AVEFA; [12]
  Herbicidal action against AVEFA, Found: 10%
POLPE; [11]
  Herbicidal action against POLPE, Found: 40%
POLPE; [12]
  Herbicidal action against POLPE, Found: 55%

## COCc1cnc(C2=NC(C)(C(C)C)C(=O)N2)c(C(=O)O)c1 (centres unmarked) [imazamox, reference compound]
BIDPI [1]; [12]
  Herbicidal action against BIDPI, Found: 20%
BIDPI [1]; [13]
  Herbicidal action against BIDPI, Found: 60%

## CNC.O=C(O)COc1ccc(Cl)cc1Cl [2,4-D dimethylamine salt]
BIDPI [1]; application rate 31.25 g/ha
  Herbicidal action against BIDPI, Found: 80%
BIDPI [1]; application rate 62.5 g/ha (Example 31)
  Herbicidal action against BIDPI, Found: 80%
BRAPL; application rate 31.25 g/ha
  Herbicidal action against BRAPL, Found: 10%
BRAPL; application rate 62.5 g/ha
  Herbicidal action against BRAPL, Found: 15%

## CC(C)c1ccc(NC(=O)N(C)C)cc1 [isoproturon]
BIDPI [1]; application rate 62.5 g/ha
  Herbicidal action against BIDPI, Found: 30%
BIDPI [1]; application rate 125 g/ha
  Herbicidal action against BIDPI, Found: 60%

## CCc1cnc(C2=NC(C)(C(C)C)C(=O)N2)c(C(=O)O)c1 (centres unmarked) [imazethapyr, reference compound]
COMBE; application rate 15.63 g/ha
  Herbicidal action against COMBE, Found: 20%
COMBE; application rate 31.25 g/ha
  Herbicidal action against COMBE, Found: 40%
POLPE; [11]
  Herbicidal action against POLPE, Found: 40%
POLPE; [12]
  Herbicidal action against POLPE, Found: 60%

## Cc1cnc(C2=NC(=O)C(C)(C(C)C)N2)c(C(=O)O)c1 (centres unmarked) [imazapic, reference compound]
COMBE; application rate 15.63 g/ha
  Herbicidal action against COMBE, Found: 0%
COMBE; application rate 31.25 g/ha
  Herbicidal action against COMBE, Found: 40%
POLPE; [11]
  Herbicidal action against POLPE, Found: 75%
POLPE; [12]
  Herbicidal action against POLPE, Found: 80%

## CCCOc1nn(C(=O)[N-]S(=O)(=O)c2ccccc2C(=O)OC)c(=O)n1C.[Na+] [propoxycarbazone sodium salt]
BIDPI [1]; [6]
  Herbicidal action against BIDPI, Found: 30%
BIDPI [1]; application rate 7.81 g/ha (Example 27)
  Herbicidal action against BIDPI, Found: 40%

## CP(=O)(O)CCC(N)C(=O)O (centres unmarked) [glufosinate ammonium salt]
BRAPL; application rate 125 g/ha (Example 17)
  Herbicidal action against BRAPL, Found: 45%
BRAPL; application rate 125 g/ha (Example 18)
  Herbicidal action against BRAPL, Found: 45%

## CC(C)N.O=C(O)CNCP(=O)(O)O [glyphosate isopropylamine salt]
AVEFA; application rate 250 g/ha (Example 15)
  Herbicidal action against AVEFA, Found: 40%
AVEFA; application rate 250 g/ha (Example 16)
  Herbicidal action against AVEFA, Found: 40%

## CCCC(=NOCC(C)Oc1ccc(Cl)cc1)C1=C(O)CC(C2CCCSC2)CC1=O (centres unmarked) [profoxydim, reference compound]
GALAP; [14]
  Herbicidal action against GALAP, Found: 30%
GALAP; [11]
  Herbicidal action against GALAP, Found: 30%

## CC(C)N1C(=O)c2ccccc2NS1(=O)=O [bentazone sodium salt, reference compound]
ABUTH [2]; application rate 125 g/ha
  Herbicidal action against ABUTH, Found: 0%
ABUTH [2]; application rate 250 g/ha
  Herbicidal action against ABUTH, Found: 20%
POLPE; [15]
  Herbicidal action against POLPE, Found: 15%
POLPE; application rate 250 g/ha, 21 days
  Herbicidal action against POLPE, Found: 25%

## COc1cc(OC)nc(NC(=O)NS(=O)(=O)c2ncccc2C(=O)N(C)C)n1 [nicosulfuron]
BIDPI [1]; [5]
  Herbicidal action against BIDPI, Found: 70%
BIDPI [1]; application rate 7.81 g/ha (Example 26)
  Herbicidal action against BIDPI, Found: 80%

## CC/C(=N\OC/C=C/Cl)C1=C(O)CC(C2CCOCC2)CC1=O (centres unmarked) [tepraloxydim, reference compound]
AVEFA; [14]
  Herbicidal action against AVEFA, Found: 70%
AVEFA; [11]
  Herbicidal action against AVEFA, Found: 80%
SETFA; application rate 7.81 g/ha
  Herbicidal action against SETFA, Found: 70%
SETFA; application rate 15.63 g/ha
  Herbicidal action against SETFA, Found: 80%

## CCNc1nc(Cl)nc(NC(C)C)n1 [atrazine, reference compound]
ECHCG; [13]
  Herbicidal action against ECHCG, Found: 45%
ECHCG; [15]
  Herbicidal action against ECHCG, Found: 65%

## C=CCN(CC=C)C(=O)C(Cl)Cl [dichlormid]
Crop plants
  Damage to the crop plant corn (ZEAMX), cultivar Magister: 13%
  Damage to the crop plant corn (ZEAMX), cultivar P3751: 0%

## CCc1cccc(C)c1N(C(=O)CCl)[C@@H](C)COC [S-metolachlor]
GALAP; application rate 125 g/ha (Example 29)
  Herbicidal action against GALAP, Found: 0%
GALAP; application rate 250 g/ha (Example 29)
  Herbicidal action against GALAP, Found: 20%

## O=C(Nc1ccc(F)cc1)c1cccc(Oc2cccc(C(F)(F)F)c2)n1 [picolinafen]
SETVI
  Herbicidal action against SETVI, Found: 40%

## O=C(O)c1c(Cl)ccc2cc(Cl)cnc12 [quinclorac]
ECHCG; [16]
  Herbicidal action against ECHCG, Found: 10%
ECHCG; [17]
  Herbicidal action against ECHCG, Found: 10%
POLPE; [16]
  Herbicidal action against POLPE, Found: 15%
POLPE; [17]
  Herbicidal action against POLPE, Found: 15%

## C/C(=N\NC(=O)Nc1cc(F)cc(F)c1)c1ncccc1C(=O)O [diflufenzopyr sodium salt]
ABUTH [3]; application rate 62.5 g/ha
  Herbicidal action against ABUTH, Found: 10%
ABUTH [3]; application rate 125 g/ha
  Herbicidal action against ABUTH, Found: 30%
BIDPI [4]; application rate 62.5 g/ha
  Herbicidal action against BIDPI, Found: 40%
BIDPI [4]; application rate 125 g/ha
  Herbicidal action against BIDPI, Found: 70%

## COc1c(Cl)ccc(Cl)c1C(=O)O [dicamba]
AVEFA; [18]
  Herbicidal action against AVEFA, Found: 20%
AVEFA; [19]
  Herbicidal action against AVEFA, Found: 20%
BRAPL; [18]
  Herbicidal action against BRAPL, Found: 20%
BRAPL; [19]
  Herbicidal action against BRAPL, Found: 20%
